Laboratory results: patent publication US20240197700A1, “Methods and Compositions for Treating Lysosomal Storage Disorders” (Sanford Health, priority 2021, published 2024)
Entries after “also recorded” stand apart in the source; their conditions may differ.

System: Cln3^Δex7/8 mice
Test: SubC burden (immunohistochemistry) in brain of Cln3^Δex7/8 mice
Format: in vivo, mouse
Experimental: Specific experimental details are included in figure legends. In general, after collection and preparation, MEFs and PNCs were dosed with vehicle or AF38469 (40 nM, 400 nM. or 4 μM) on DIV3 and DIV5. On DIV7, cells were treated with the following dyes: Hoechst 33342 (1:1000 dilution), LysoTrackerT™ Red DND-99 (1:10,000 dilution), fixed, and imaged. Mice were given vehicle or AF38469 (78.125 μg/ml, 3.125 μg/ml, 0.3125 μg/ml or 0.03125 μg/ml equating approximately to 250 μg/mouse/day, 10 μg/mouse/day, 1 μg/mouse/day, and […], respectively, given a mouse's daily water intake of approximately 3.2 ml per day) in drinking water beginning at wean. Body weight was measured bi-weekly, and a force actimeter test was performed on Cln2^R207X mice at 10 weeks of age. Body weight was measured every month for Cln3^Δex7/8 mice. At 11 and 16 weeks of age, respectively, Cln2^R207X and Cln3^Δex7/8 mice along with age matched wild type control mice were CO2 euthanized and intracardially perfused with PBS. Brains were collected and placed on a 1 mm sagittal brain block. Brains were sliced at the midline and 3 mm right of the midline. One hemisphere was fixed in 4% PFA and sectioned at 50 microns on a vibratome. Immunohistochemistry was performed on free-floating sections. For mitochondrial ATP synthase subunit C (SubC), glial fibrillary acidic protein (GFAP), and cluster of differentiation 68 (CD68) immunolabeling, primary antibodies included anti-SubC (Abcam, ab181243; 1:1000), anti-GFAP (Dako, Z0334; 1:5000), anti-CD68 (AbD Serotec, MCA1957; 1:2000), and secondary antibodies included anti-rabbit biotinylated (Vector Labs, BA-1000 1:1000) and anti-rat (Vector Labs, BA-9400 1:1000). Coverslips were mounted on slides using antifade-mounting media and were stored in the dark before imaging. Sections were imaged and analyzed using an Aperio Digital Pathology Slide Scanner (AT2) and associated software. Images were extracted from S1BF of the somatosensory cortex and the VPM/VPL of the thalamus, with multiple images taken of multiple tissues from each animal.
Short-term chronic treatment with AF38469 reduces storage material burden in Cln2^R207X and Cln3^Δex7/8 mice. Beginning at wean, wild type and Cln2^R207X mice were treated with vehicle (0.2408% DMSO) or AF38469 (0.03125 μg/ml, 0.3125 μg/ml, 3.125 μg/ml, 78.125 μg/ml) continuously through the drinking water continuing until sacrifice at 11 weeks. Beginning at wean, wild type and Cln3^Δex7/8 mice were treated with vehicle (0.2408% DMSO) or AF38469 (0.03125 μg/ml, 0.3125 μg/ml, 3.125 μg/ml, 78.125 μg/ml) continuously through the drinking water until sacrifice at 16 weeks. Upon sacrifice, one hemisphere of brain was sectioned at 50 microns on a vibratome; DAB staining immunohistochemistry was then performed using anti-SubC (Abcam, ab181243) anti-rabbit biotinylated (Vector Labs, BA-1000). Sections were imaged and analyzed using an Aperio Digital Pathology Slide Scanner (AT2) and associated software. Images were extracted from S1BF of the somatosensory cortex and the VPM/VPL of the thalamus, key brain regions for Batten disease pathology. Percent area of immunoreactivity were quantified using a threshold analysis in ImageJ™. Statistical analyses were performed using GraphPad Prism™ (v8.4.3; San Diego, CA). […] Increasing concentrations of AF38469 and corresponding genotypes are shown along the x-axis. Nested one-way ANOVA. […]

## Cc1cccc(NC(=O)c2ccc(C(F)(F)F)cc2C(=O)O)n1 [AF38469, 2-((6-methylpyridin-2-yl)carbamoyl)-5-(trifluoromethyl)benzoic acid]
0.03125 μg/ml, 0.3125 μg/ml in drinking water, somatosensory cortex and VPM/VPL of the thalamus, 16 weeks
  Subunit C burden: significantly decreased
3.125 μg/ml in drinking water, somatosensory cortex and VPM/VPL of the thalamus, 16 weeks
  Subunit C burden: significantly decreased
3.125 μg/ml, 78.125 μg/ml in drinking water, somatosensory cortex, 16 weeks
  Subunit C burden: significantly decreased

## CC[C@H](C)[C@H](N)C(=O)NCCN1CCOCC1 [LM11A-31, N-[2-(morpholin-4-yl)ethyl]-L-isoleucinamide]
LM11A-31 0.6 mg/mL, VPM/VPL of the thalamus
  SubC burden: decrease; also recorded: decreasing trend
LM11A-31 0.6 mg/mL, somatosensory cortex (S1BF)
  Subunit C burden: increase; also recorded: did not significantly decreased
